Results published in US20030176499A1, “Use of fibrates for the preparation of a medicament useful in the treatment of congestive heart failure” (priority 2003, published 2003).

Legend:
[1] = test system: male Wistar rats with left ventricular hypertrophy induced by constriction of the abdominal aorta; settings: rats with aortic constriction, clofibrate 0.2% in the feed for 12 weeks, mean ± standard deviation
Experimental: (§1) Animal-housed male Wistar rats weighing 100-120 g were used: 5 per cage (cage size: 425 mm×266 mm×180 mm with a sawdust litter) at a temperature of […] and 50±15% humidity with a 12/12 h light/darkness cycle and with 15-20 air changes/hour. The animals were fed with LP ALTROMIN (REIPER) feed and spring water ad libitum
(§2) Left ventricular hypertrophy was induced in rats anaesthetised with Nembutal sodium, by means of constriction of the abdominal aorta with a clip (Ø0.8 mm) placed in the abdominal aorta between the diaphragm and the renal branches; one group of animals, which was then used as a control group, underwent the same operation but was not submitted to constriction of the aorta (shams).
(§3) The animals were thus randomly assigned to the following groups:
(§4) CLO: operated on with aortic constriction and treated for 12 weeks, from the day after the operation with clofibrate 0.2% in the feed (60-100 mg/kg/day (n=11).
At the end of the experiments the animals were sacrificed by means of a lethal dose of Nembutal, the abdominal cavity was opened, the organs were exteriorised in order to verify correct positioning of the aortic clip, and the heart, lungs and liver were then removed and carefully dried and weighed after macroscopic observation of any abnormalities.
The data were expressed as mean ± standard deviation and were compared using Student's t-test for independent data. […]

[2] = test system: male Wistar rats with left ventricular hypertrophy induced by constriction of the abdominal aorta; assay: Evaluation of cardiac function in rats with aortic constriction (left ventricular catheter); format: in vivo, rat; settings: anaesthetised rats with aortic constriction, clofibrate 0.2% in the feed for 12 weeks, mean ± standard deviation
Experimental: as §1, §2, §3, §4
At the end of treatment, cardiac function was evaluated, in the animals anaesthetised with Nembutal sodium, by means of a polyethylene catheter inserted in the left ventricle via the carotid and connected up to a pressure transducer (Statham p23 XL) and to an amplifier (Biomedica Mangoni bm 61).
The parameters recorded were: heart rate, ventricular systolic and end-diastolic pressure, and the positive and negative derivatives of ventricular pressure, which were recorded on a personal computer by means of a special data acquisition system (IDAS). The measurements were taken for a period of 30 minutes.
The data were expressed as mean ± standard deviation and were compared using Student's t-test for independent data. Differences with P<0.05 were regarded as statistically significant.

## CCOC(=O)C(C)(C)Oc1ccc(Cl)cc1 [CLO, clofibrate]
[1]
  VW/BW (ventricular weight (mg) / body weight (g)): 3.33 ± 0.20a
[2]
  DP/dt max = positive derivative of ventricular pressure: 16108 ± 1115eC mm Hg/sec
  DP/dt min = negative derivative of ventricular pressure: 9556 ± 560bA mm Hg/sec
  DP/dtmax/LVSP (positive derivative normalised for ventricular systolic pressure): 77 ± 5 s⁻¹
  HR = heart rate: 401 ± 16 b/min
  LDevP/HW (developed pressure normalised for ventricular weight): 13.3 ± 1.5aC
  LVEDP = left ventricular end-diastolic pressure: 7.2 ± 1.2 mmHg
  LVSP = left ventricular systolic pressure: 206 ± 5aB mm Hg
  LdevP developed pressure: 207 ± 7cA mm Hg
